{"source": "patent US6479435B1", "about": "“Diaryl ethers and processes for their preparation and herbicidal and desiccant compositions containing them” (ISK Americas Incorporated, priority 1997, dated 2002)", "format_in_all_cases": "in vivo", "key": {"[1]": {"tested_on": "upland rice (Oryza sp., var.Tebonnet, RICE)", "assay": "Post-emerge greenhouse test, crop damage rating", "settings": "14 days after application, scale 0-100", "method_in_brief": "(§1)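 Plants at the 2-3 leaf stage, sown 8-21 days earlier, were track-sprayed post-emergence with compound in acetone plus 0.25% v/v non-ionic surfactant at 63-1000 g ai/ha (187 l/ha). Damage was rated at 14 days on a 0-100 scale (0 none, 100 all plants dead), for both crop injury and weed control.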"}, "[2]": {"tested_on": "field corn (Zea mays L., var. Dekalb 535, CORN)", "assay": "Post-emerge greenhouse test, crop damage rating", "settings": "14 days after application, scale 0-100", "method_in_brief": "as §1"}, "[3]": {"tested_on": "common ragweed (Ambrosia artemisiifolia L., AMBEL)", "assay": "Post-emerge greenhouse herbicide test, phytotoxicity rating", "settings": "14 days after application, scale 0-100", "method_in_brief": "as §1"}, "[4]": {"tested_on": "soybean (Glycine max L., var. Pella 86, SOY)", "assay": "Post-emerge greenhouse test, crop damage rating", "design": "key to crop damage rating SOY: 0-100 scale: 0 = no damage, 100 = complete death of all plants", "settings": "14 days after application, scale 0-100", "method_in_brief": "as §1"}, "[5]": {"tested_on": "upland rice (Oryza sp., var.Tebonnet, RICE)", "assay": "Pre-emerge greenhouse test, crop damage rating", "settings": "14 days after application, rating scale 0-100", "method_in_brief": "(§2)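 Seeds sown in sandy loam one day before track-sprayer application of acetone solutions at 125–1000 g ai/ha (187 l/ha), then surface-watered to incorporate and bottom-watered. Injury scored visually at 14 days on a 0–100 scale (0 no damage, 100 complete death).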"}, "[6]": {"tested_on": "field corn (Zea mays L., var. Dekalb 535, CORN)", "assay": "Pre-emerge greenhouse test, crop damage rating", "settings": "14 days after application, rating scale 0-100", "method_in_brief": "as §2"}, "[7]": {"tested_on": "sicklepod (Cassia obtusifolia, CASOB)", "assay": "Post-emerge greenhouse herbicide test, phytotoxicity rating", "settings": "14 days after application, scale 0-100", "method_in_brief": "as §1"}, "[8]": {"tested_on": "barnyardgrass (Echinochloa crusgalli, ECHCG)", "assay": "Post-emerge greenhouse herbicide test, phytotoxicity rating", "settings": "14 days after application, scale 0-100", "method_in_brief": "as §1"}, "[9]": {"tested_on": "lambsquarters (Chenopodium album, CHEAL)", "assay": "Post-emerge greenhouse herbicide test, phytotoxicity rating", "settings": "14 days after application, scale 0-100", "method_in_brief": "as §1"}, "[10]": {"tested_on": "large crabgrass (Digitaria sanguinalis, DIGSA)", "assay": "Post-emerge greenhouse herbicide test, phytotoxicity rating", "settings": "14 days after application, scale 0-100", "method_in_brief": "as §1"}, "[11]": {"tested_on": "Johnsongrass (Sorghum halepense, SORHA)", "assay": "Post-emerge greenhouse herbicide test, phytotoxicity rating", "settings": "14 days after application, scale 0-100", "method_in_brief": "as §1"}, "[12]": {"tested_on": "green foxtail (Setaria viridis, SETVI)", "assay": "Post-emerge greenhouse herbicide test, phytotoxicity rating", "settings": "14 days after application, scale 0-100", "method_in_brief": "as §1"}, "[13]": {"tested_on": "ivyleaf morningglory (Ipomoea hederacea, IPOHE)", "assay": "Post-emerge greenhouse herbicide test, phytotoxicity rating", "settings": "14 days after application, scale 0-100", "method_in_brief": "as §1"}, "[14]": {"tested_on": "redroot pigweed (Amaranthus retroflexus, AMARE)", "assay": "Post-emerge greenhouse herbicide test, phytotoxicity rating", "settings": "14 days after application, scale 0-100", "method_in_brief": "as §1"}, "[15]": {"tested_on": "velvetleaf (Abutilon theophrasti, ABUTH)", "assay": "Post-emerge greenhouse herbicide test, phytotoxicity rating", "settings": "14 days after application, scale 0-100", "method_in_brief": "as §1"}, "[16]": {"tested_on": "soybean (Glycine max L., var. Pella 86, SOY)", "assay": "Pre-emerge greenhouse test, crop damage rating", "design": "key to SOY crop damage rating: 0 = no damage, 100 = complete death of all plants", "settings": "14 days after application, rating scale 0-100", "method_in_brief": "as §2"}, "[17]": {"tested_on": "sicklepod (Cassia obtusifolia, CASOB)", "assay": "Pre-emerge greenhouse herbicide test, phytotoxicity rating", "settings": "14 days after application, rating scale 0-100", "method_in_brief": "as §2"}, "[18]": {"tested_on": "common ragweed (Ambrosia artemisiifolia L., AMBEL)", "assay": "Pre-emerge greenhouse herbicide test, phytotoxicity rating", "settings": "14 days after application, rating scale 0-100", "method_in_brief": "as §2"}, "[19]": {"tested_on": "barnyardgrass (Echinochloa crusgalli, ECHCG)", "assay": "Pre-emerge greenhouse herbicide test, phytotoxicity rating", "settings": "14 days after application, rating scale 0-100", "method_in_brief": "as §2"}, "[20]": {"tested_on": "lambsquarters (Chenopodium album, CHEAL)", "assay": "Pre-emerge greenhouse herbicide test, phytotoxicity rating", "settings": "14 days after application, rating scale 0-100", "method_in_brief": "as §2"}, "[21]": {"tested_on": "large crabgrass (Digitaria sanguinalis, DIGSA)", "assay": "Pre-emerge greenhouse herbicide test, phytotoxicity rating", "settings": "14 days after application, rating scale 0-100", "method_in_brief": "as §2"}, "[22]": {"tested_on": "Johnsongrass (Sorghum halepense, SORHA)", "assay": "Pre-emerge greenhouse herbicide test, phytotoxicity rating", "settings": "14 days after application, rating scale 0-100", "method_in_brief": "as §2"}, "[23]": {"tested_on": "green foxtail (Setaria viridis, SETVI)", "assay": "Pre-emerge greenhouse herbicide test, phytotoxicity rating", "settings": "14 days after application, rating scale 0-100", "method_in_brief": "as §2"}, "[24]": {"tested_on": "ivyleaf morningglory (Ipomoea hederacea, IPOHE)", "assay": "Pre-emerge greenhouse herbicide test, phytotoxicity rating", "settings": "14 days after application, rating scale 0-100", "method_in_brief": "as §2"}, "[25]": {"tested_on": "redroot pigweed (Amaranthus retroflexus, AMARE)", "assay": "Pre-emerge greenhouse herbicide test, phytotoxicity rating", "settings": "14 days after application, rating scale 0-100", "method_in_brief": "as §2"}, "[26]": {"tested_on": "velvetleaf (Abutilon theophrasti, ABUTH)", "assay": "Pre-emerge greenhouse herbicide test, phytotoxicity rating", "settings": "14 days after application, rating scale 0-100", "method_in_brief": "as §2"}}, "data": [{"compound": "N#Cc1cccnc1Oc1cc(-n2c(=O)n3n(c2=S)CCCC3)c(F)cc1Cl", "note": "[Compound 8-20]", "values": [{"measurement": "crop damage rating RICE", "setting": "[1]; rate 63 g ai/ha", "value": 15}, {"measurement": "crop damage rating RICE", "setting": "[1]; rate 500 g ai/ha", "value": 60}, {"measurement": "crop damage rating CORN", "setting": "[2]; rate 63 g ai/ha", "value": 15}, {"measurement": "crop damage rating CORN", "setting": "[2]; rate 500 g ai/ha", "value": 20}, {"measurement": "phytotoxicity rating AMBEL", "setting": "[3]; rate 63 g ai/ha", "value": 90}, {"measurement": "phytotoxicity rating AMBEL", "setting": "[3]; rate 500 g ai/ha", "value": 100}, {"measurement": "crop damage rating SOY", "setting": "[4]; rate 63 g ai/ha", "value": 90}, {"measurement": "crop damage rating SOY", "setting": "[4]; rate 500 g ai/ha", "value": 100}, {"measurement": "RICE crop damage rating", "setting": "[5]; Rate 125 g al/ha", "value": 20}, {"measurement": "RICE crop damage rating", "setting": "[5]; Rate 500 g al/ha", "value": 40}, {"measurement": "CORN crop damage rating", "setting": "[6]; Rate 125 g al/ha", "value": 5}, {"measurement": "CORN crop damage rating", "setting": "[6]; Rate 500 g al/ha", "value": 10}, {"measurement": "phytotoxicity rating CASOB", "setting": "[7]; rate 63 g ai/ha", "value": 90}, {"measurement": "phytotoxicity rating CASOB", "setting": "[7]; rate 500 g ai/ha", "value": 100}, {"measurement": "phytotoxicity rating ECHCG", "setting": "[8]; rate 63 g ai/ha", "value": 20}, {"measurement": "phytotoxicity rating ECHCG", "setting": "[8]; rate 500 g ai/ha", "value": 40}, {"measurement": "phytotoxicity rating CHEAL", "setting": "[9]; rate 63 g ai/ha", "value": 95}, {"measurement": "phytotoxicity rating CHEAL", "setting": "[9]; rate 500 g ai/ha", "value": 100}, {"measurement": "phytotoxicity rating DIGSA", "setting": "[10]; rate 63 g ai/ha", "value": 30}, {"measurement": "phytotoxicity rating DIGSA", "setting": "[10]; rate 500 g ai/ha", "value": 30}, {"measurement": "phytotoxicity rating SORHA", "setting": "[11]; rate 63 g ai/ha", "value": 90}, {"measurement": "phytotoxicity rating SORHA", "setting": "[11]; rate 500 g ai/ha", "value": 100}, {"measurement": "phytotoxicity rating SETVI", "setting": "[12]; rate 63 g ai/ha", "value": 70}, {"measurement": "phytotoxicity rating SETVI", "setting": "[12]; rate 500 g ai/ha", "value": 0}, {"measurement": "phytotoxicity rating IPOHE", "setting": "[13]; rate 63 g ai/ha", "value": 100}, {"measurement": "phytotoxicity rating IPOHE", "setting": "[13]; rate 500 g ai/ha", "value": 100}, {"measurement": "phytotoxicity rating AMARE", "setting": "[14]; rate 63 g ai/ha", "value": 100}, {"measurement": "phytotoxicity rating AMARE", "setting": "[14]; rate 500 g ai/ha", "value": 100}, {"measurement": "phytotoxicity rating ABUTH", "setting": "[15]; rate 63 g ai/ha", "value": 100}, {"measurement": "phytotoxicity rating ABUTH", "setting": "[15]; rate 500 g ai/ha", "value": 100}, {"measurement": "SOY crop damage rating", "setting": "[16]; Rate 125 g al/ha", "value": 20}, {"measurement": "SOY crop damage rating", "setting": "[16]; Rate 500 g al/ha", "value": 25}, {"measurement": "CASOB phytotoxicity rating", "setting": "[17]; Rate 125 g al/ha", "value": 90}, {"measurement": "CASOB phytotoxicity rating", "setting": "[17]; Rate 500 g al/ha", "value": 100}, {"measurement": "AMBEL phytotoxicity rating", "setting": "[18]; Rate 125 g al/ha", "value": 90}, {"measurement": "AMBEL phytotoxicity rating", "setting": "[18]; Rate 500 g al/ha", "value": 100}, {"measurement": "ECHCG phytotoxicity rating", "setting": "[19]; Rate 125 g al/ha", "value": 60}, {"measurement": "ECHCG phytotoxicity rating", "setting": "[19]; Rate 500 g al/ha", "value": 80}, {"measurement": "CHEAL phytotoxicity rating", "setting": "[20]; Rate 125 g al/ha", "value": 100}, {"measurement": "CHEAL phytotoxicity rating", "setting": "[20]; Rate 500 g al/ha", "value": 100}, {"measurement": "DIGSA phytotoxicity rating", "setting": "[21]; Rate 125 g al/ha", "value": 40}, {"measurement": "DIGSA phytotoxicity rating", "setting": "[21]; Rate 500 g al/ha", "value": 100}, {"measurement": "SORHA phytotoxicity rating", "setting": "[22]; Rate 125 g al/ha", "value": 40}, {"measurement": "SORHA phytotoxicity rating", "setting": "[22]; Rate 500 g al/ha", "value": 90}, {"measurement": "SETVI phytotoxicity rating", "setting": "[23]; Rate 125 g al/ha", "value": 95}, {"measurement": "SETVI phytotoxicity rating", "setting": "[23]; Rate 500 g al/ha", "value": 100}, {"measurement": "IPOHE phytotoxicity rating", "setting": "[24]; Rate 125 g al/ha", "value": 95}, {"measurement": "IPOHE phytotoxicity rating", "setting": "[24]; Rate 500 g al/ha", "value": 100}, {"measurement": "AMARE phytotoxicity rating", "setting": "[25]; Rate 125 g al/ha", "value": 100}, {"measurement": "AMARE phytotoxicity rating", "setting": "[25]; Rate 500 g al/ha", "value": 100}, {"measurement": "ABUTH phytotoxicity rating", "setting": "[26]; Rate 125 g al/ha", "value": 100}, {"measurement": "ABUTH phytotoxicity rating", "setting": "[26]; Rate 500 g al/ha", "value": 100}]}]}
